Data reported in ChEMBL document CHEMBL5252628, “Novel xanthone antibacterials: Semi-synthesis, biological evaluation, and the action mechanisms” (Bioorg Med Chem, 2023).
Converted amounts (≈) assume the structure as drawn. The source made the active and inactive calls. No cut-off for these calls is given here.

How the values were obtained:
[1] = test system: Salmonella enteritidis; assay: Antibacterial activity against Salmonella enteritidis SM012 assessed as inhibition of bacterial growth incubated for 18 to 24 hrs by broth microdilution assay; type: functional, Salmonella enterica subsp. enterica serovar Enteritidis; conditions: Salmonella enterica, time 18-24 hrs
[2] = test system: Staphylococcus aureus; assay: Antibacterial activity against Staphylococcus aureus SH-27 assessed as inhibition of bacterial growth incubated for 18 to 24 hrs by broth microdilution assay; type: functional; conditions: time 18-24 hrs
[3] = test system: Staphylococcus aureus; assay: Antibacterial activity against methicillin-resistant Staphylococcus aureus 2 assessed as inhibition of bacterial growth incubated for 18 to 24 hrs by broth microdilution assay; type: functional; conditions: time 18-24 hrs
[4] = test system: Staphylococcus aureus; assay: Antibacterial activity against Staphylococcus aureus ATCC 29213 assessed as inhibition of bacterial growth incubated for 18 to 24 hrs by broth microdilution assay; type: functional; conditions: time 18-24 hrs
[5] = test system: Staphylococcus aureus; assay: Antibacterial activity against Staphylococcus aureus ATCC 33591 assessed as inhibition of bacterial growth incubated for 18 to 24 hrs by broth microdilution assay; type: functional; conditions: time 18-24 hrs
[6] = test system: Escherichia coli; assay: Antibacterial activity against Escherichia coli ATCC 25922 assessed as inhibition of bacterial growth incubated for 18 to 24 hrs by broth microdilution assay; type: functional; conditions: time 18-24 hrs
[7] = test system: Staphylococcus aureus; assay: Antibacterial activity against Staphylococcus aureus ATCC 43300 assessed as inhibition of bacterial growth incubated for 18 to 24 hrs by broth microdilution assay; type: functional; conditions: time 18-24 hrs
[8] = Hemolytic activity in rabbit RBC assessed as hemolysis incubated for 1 hr by microtiter plate method; type: toxicity, cell-based, Oryctolagus cuniculus, Erythrocyte; conditions: red blood cells
[9] = test system: L02; assay: Cytotoxicity against human L02 cells assessed as reduction in cell viability at 25 ug/ml incubated for 72 hrs by CCK-8 assay; type: toxicity, cell-based; conditions: l02, 72 h, dose 25 µg/ml
[10] = test system: A549; assay: Cytotoxicity against human A549 cells assessed as reduction in cell viability at 25 ug/ml incubated for 72 hrs by CCK-8 assay; type: toxicity, cell-based; conditions: a549, 72 h, dose 25 µg/ml
[11] = test system: Staphylococcus aureus; assay: Antibacterial activity Staphylococcus aureus ATCC 29213 infected BALB/c mouse assessed as reduction in bacterial burden at 15 mg/kg,iv measured on day 1 and 3 after infection; type: functional, organism-based
[12] = test system: Cell membrane; assay: Induction of membrane depolarization in Staphylococcus aureus ATCC 29213 at 5 x MIC incubated for 2 hrs by DiOC23 dye based based flow cytometry; type: subcellular
[13] = test system: Staphylococcus aureus; assay: Inhibition of biofilm formation in Staphylococcus aureus ATCC 29213 at 4 to 16 microg/ml incubated for 18 to 24 hrs by crystal violet staining based assay; type: functional, organism-based; conditions: dose 4-16 µg/ml, time 18-24 hrs
[14] = test system: Staphylococcus aureus; assay: Bactericidal activity against Staphylococcus aureus ATCC 29213 assessed as reduction in colony forming unit at 1 to 8 times MIC incubated for 18 to 24 hrs by time kill assay; type: functional, organism-based; conditions: time 18-24 hrs
[15] = test system: Staphylococcus aureus; assay: Antibacterial activity against methicillin-resistant Staphylococcus aureus 2 assessed as appearance of circular vesicles at 5 x MIC incubated for 2 hrs by transmission electron microscopy analysis; type: functional, organism-based
[16] = test system: Staphylococcus aureus; assay: Antibacterial activity against Staphylococcus aureus ATCC 29213 assessed as appearance of circular vesicles at 5 x MIC incubated for 2 hrs by transmission electron microscopy analysis; type: functional, organism-based
[17] = test system: Staphylococcus aureus; assay: Antibacterial activity against Staphylococcus aureus ATCC 29213 assessed as separation of plasma wall at 5 x MIC incubated for 2 hrs by transmission electron microscopy analysis; type: functional, organism-based
[18] = test system: Staphylococcus aureus; assay: Antibacterial activity against Staphylococcus aureus ATCC 29213 assessed as blurred space in cytoplasm and cell wall at 5 x MIC incubated for 2 hrs by transmission electron microscopy analysis; type: functional, organism-based
[19] = test system: Staphylococcus aureus; assay: Antibacterial activity against methicillin-resistant Staphylococcus aureus 2 assessed as cell wall loosening at 5 x MIC incubated for 2 hrs by transmission electron microscopy analysis; type: functional, organism-based
[20] = test system: Cell membrane; assay: Induction of membrane depolarization in methicillin-resistant Staphylococcus aureus 2 at 5 x MIC incubated for 2 hrs by DiOC23 dye based based flow cytometry; type: subcellular
[21] = test system: Staphylococcus aureus; assay: Bactericidal activity against methicillin-resistant Staphylococcus aureus 2 assessed as reduction in colony forming unit at 1 to 8 times MIC incubated for 18 to 24 hrs by time kill assay; type: functional, organism-based; conditions: time 18-24 hrs
[22] = test system: Cell membrane; assay: Induction of cell membrane permeability in methicillin-resistant Staphylococcus aureus 2 at 5 x MIC incubated for 2 hrs by TO-PRO-3 reagent flow cytometry assay; type: subcellular
[23] = test system: Cell membrane; assay: Induction of cell membrane permeability in Staphylococcus aureus ATCC 29213 at 5 x MIC incubated for 2 hrs by TO-PRO-3 reagent flow cytometry assay; type: subcellular
[24] = test system: Staphylococcus aureus; assay: Inhibition of biofilm formation in methicillin-resistant Staphylococcus aureus 2 at 4 to 16 microg/ml incubated for 18 to 24 hrs by crystal violet staining based assay; type: functional, organism-based; conditions: dose 4-16 µg/ml, time 18-24 hrs
[25] = test system: Staphylococcus aureus; assay: Antibacterial activity against methicillin-resistant Staphylococcus aureus 2 assessed as separation of plasma wall at 5 x MIC incubated for 2 hrs by transmission electron microscopy analysis; type: functional, organism-based
[26] = test system: Staphylococcus aureus; assay: Antibacterial activity against Staphylococcus aureus ATCC 29213 assessed as cell wall loosening at 5 x MIC incubated for 2 hrs by transmission electron microscopy analysis; type: functional, organism-based
[27] = test system: Staphylococcus aureus; assay: Antibacterial activity against methicillin-resistant Staphylococcus aureus 2 assessed as blurred space in cytoplasm and cell wall at 5 x MIC incubated for 2 hrs by transmission electron microscopy analysis; type: functional, organism-based

| Structure (SMILES) | MIC [1] [µg/mL] | MIC [2] [µg/mL] | MIC [3] [µg/mL] | MIC [4] [µg/mL] | MIC [5] [µg/mL] | MIC [6] [µg/mL] | MIC [7] [µg/mL] | HC50 at 1 h [8] [µg/mL] | Activity [9] | Activity [10] | other results |
| --- | --- | --- | --- | --- | --- | --- | --- | --- | --- | --- | --- |
| COc1cc2oc3cc(OC)c(OC)c(CC=C(C)C)c3c(=O)c2c(OC)c1CC=C(C)C | > 256 | > 256 | > 256 | > 256 | > 256 | > 256 | > 256 |  |  |  |  |
| COc1c(O)cc2oc3cc(O)c(CC=C(C)C)c(OC(=O)C(C)C)c3c(=O)c2c1CC=C(C)C | > 256 | 1 (≈ 2.08 µM) | 2 (≈ 4.16 µM) | 2 (≈ 4.16 µM) | 1 (≈ 2.08 µM) | > 256 | 1 (≈ 2.08 µM) | 263 | Non-Toxic | Non-Toxic |  |
| CCN1CCN(c2cc3c(cc2F)c(=O)c(C(=O)O)cn3C2CC2)CC1 [ENROFLOXACIN] |  | 128 (≈ 356 µM) | 32 (≈ 89 µM) | 0.06 (≈ 0.167 µM) |  | 0.0156 (≈ 0.0434 µM) |  |  |  |  | Activity [11]: Active |
| COc1c(OC(C)=O)cc2oc3cc(OC(C)=O)c(CC=C(C)C)c(OC(C)=O)c3c(=O)c2c1CC=C(C)C | > 256 | 16 (≈ 29.8 µM) | > 256 | 128 (≈ 239 µM) | > 256 | > 256 | > 256 | > 500 | Non-Toxic | Non-Toxic |  |
| COc1c(O)cc2c(c1CC=C(C)C)Cc1c(cc(O)c(CC=C(C)C)c1O)O2 | > 256 | 8 (≈ 20.2 µM) | 16 (≈ 40.4 µM) | 16 (≈ 40.4 µM) | 8 (≈ 20.2 µM) | > 256 | 4 (≈ 10.1 µM) | > 500 | Non-Toxic | Non-Toxic |  |
| COc1c(O)cc2oc3cc4c(c(O)c3c(=O)c2c1CC=C(C)C)CCC(C)(C)O4 | > 256 | 64 (≈ 156 µM) | 64 (≈ 156 µM) | 64 (≈ 156 µM) | 32 (≈ 78 µM) | > 256 | 64 (≈ 156 µM) |  |  |  |  |
| COc1c(O)cc2oc3cc(O)c(CCC(C)C)c(O)c3c(=O)c2c1CCC(C)C | > 256 | 64 (≈ 154 µM) | 64 (≈ 154 µM) | 32 (≈ 77.2 µM) | 64 (≈ 154 µM) | > 256 | 32 (≈ 77.2 µM) |  |  |  |  |
| COc1c(OC(=O)C(C)C)cc2oc3cc(O)c(CC=C(C)C)c(O)c3c(=O)c2c1CC=C(C)C | > 256 | > 256 | > 256 | > 256 | > 256 | > 256 | > 256 |  |  |  |  |
| COc1c(O)cc2oc3cc(O)c(CC=C(C)C)c(O)c3c(=O)c2c1CC=C(C)C [MANGOSTIN] | > 256 | 2 (≈ 4.87 µM) | 2 (≈ 4.87 µM) | 2 (≈ 4.87 µM) | 1 (≈ 2.44 µM) | > 256 | 1 (≈ 2.44 µM) | 26.2 | Non-Toxic | Non-Toxic | Activity [12]: Active; inhibition [13]: Dose-Dependent Effect; Activity [14]: Active; Activity [15]: Active; Activity [16]: Active; Activity [17]: Active; Activity [18]: Active; Activity [19]: Active; Activity [20]: Active; Activity [21]: Active; Activity [22]: 100%; Activity [23]: 100%; inhibition [24]: Dose-Dependent Effect; Activity [25]: Active; Activity [26]: Active; Activity [27]: Active |
| COc1c(OCCCCCCO)cc2oc3cc(O)c(CC=C(C)C)c(O)c3c(=O)c2c1CC=C(C)C | > 256 | > 256 | > 256 | > 256 | > 256 | > 256 | > 256 |  |  |  |  |
| COc1c(OC(=O)C(C)C)cc2oc3cc(OC(=O)C(C)C)c(CC=C(C)C)c(OC(=O)C(C)C)c3c(=O)c2c1CC=C(C)C | > 256 | > 256 | > 256 | > 256 | > 256 | > 256 | > 256 |  |  |  |  |
